From patent publication US20050221422A1, “Novel galactose transferases, peptides thereof and nucleic acid encoding the same” (priority 2002, published 2005)
Ends that are not written are not given here. T(GalNAc) = N-acetylgalactosamine-glycosylated threonine

Columns and labels:
C1Gal-T3 = molecular target: T1, C1Gal-T3 (Homo sapiens, UniProt P0DN25); assay: Galactose transferring activity of C1Gal-T3 recombinant enzyme on N-acetylgalactosaminyl peptides; type: biochemical; settings: C1Gal-T3 recombinant enzyme expressed in COS-1 cells as enzyme source
T1 construct: a carboxyl terminal region (enzyme activity region) minus the transmembrane region at the amino terminus; preprotrypsin secretion signal (N); made in house; host or cells: COS-1 cells, transient transfection with pFLAG-C1Gal-T3; purified from culture supernatant on anti-FLAG M1 agarose
T1 sequence (P0DN25 30-315 limits assumed): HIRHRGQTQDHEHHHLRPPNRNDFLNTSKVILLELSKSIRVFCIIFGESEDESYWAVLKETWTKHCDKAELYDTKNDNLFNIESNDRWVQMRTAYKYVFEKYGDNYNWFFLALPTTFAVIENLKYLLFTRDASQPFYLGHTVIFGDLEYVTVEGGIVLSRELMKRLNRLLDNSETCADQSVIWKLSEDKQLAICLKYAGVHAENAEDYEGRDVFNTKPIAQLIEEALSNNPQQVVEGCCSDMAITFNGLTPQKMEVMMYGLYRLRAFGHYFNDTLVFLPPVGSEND
Experimental: The reaction solution (parentheses indicate final concentrations) comprised acceptor substrate (5 pmol), MES buffer (pH 6.5) (100 mM), MnCl2 (20 mM), ATP (2 mM), and UDP-Gal (0.5 mM). 5 μl of […] enzyme source was added to this reaction solution, which was then brought to a total volume of 20 μl by adding H2O.
The above reaction mixture was reacted at 37° C. for eight hours. After completion of the reaction, 60 μl of H2O was added, and the mixture was gently centrifuged to acquire the supernatant. This supernatant was purified through an Ultra Free MC Column (Millipore), and 30 μl of thus-purified solution was analyzed using high-performance liquid chromatography (HPLC). CAPCELL PAK C18 UG120 (Shiseido) was used as the column, 0.1% trifluoroacetic acid was used as the separation buffer, and the elution was carried out over an acetonitrile concentration gradient of 15-30%. The flow rate was 1 ml/minute.
Galactose transferring activity was measured using the C1Gal-T3 recombinant enzyme expressed in COS-1 cells as an enzyme source, and using the N-acetylgalactosaminyl peptides used in Example 5 as acceptor substrates.

C1Gal-T2 = assay: Screening for acceptor substrate of C1Gal-T2 (UDP-[14C]-Gal transfer, TLC, LSC-C1Gal-T2 cell extract); type: biochemical, human; settings: LSC-C1Gal-T2 cell extract as enzyme source; acceptor substrate 10 nmol; 37° C. for two hours
Experimental: The reaction system below was used to investigate C2 acceptor substrates. To investigate whether pNp-α-GalNAc or pNp-β-GalNAc (both from Sigma) functioned as acceptors, each was used as an “acceptor substrate” in the following reaction solution:
The reaction solution (the parentheses show final concentrations) comprised acceptor substrate (10 nmol), HEPES buffer (pH 7.4) (14 mM), MnCl2 (12.5 mM), UDP-Gal (250 μM), and UDP-[^14C]-Gal (175 nCi). 5 μl of enzyme solution was added to this reaction solution, followed by the addition of H2O to a total volume of 20 μl. The enzyme solution was prepared by suspending cells (5×10^6 cells) in 50 ml of cell lysing buffer (HEPES buffer (pH 7.4) (20 mM), NaCl (154 mM) and TritonX-100 (1%)), incubating at 4° C. for 15 minutes in a water bath type ultrasonic homogenizer, centrifuging, and then obtaining the supernatant for the enzyme solution. The aforementioned reaction mixture was reacted at 37° C. for two hours. Following completion of the reaction, 200 μl of H2O was added to the mixture, which was gently centrifuged to obtain the supernatant. […] After drying the plate, the amount of radioactivity taken up by the product was measured using the Bio Image Analyzer FLA3000 (Fuji Photo Film).

galactose transferring activity (C1Gal-T3)	Compound	reaction as acceptor substrate (galactose transfer from UDP-Gal) (C1Gal-T2)
could be confirmed	VPST(GalNAc)PPTPSPSTPPTPSPS ({Val-Pro-Ser-T(GalNAc)}-PPTPSPSTPPTPSPS) [4-GalNAc-HP, human IgA1 hinge peptide with GalNAc on the 4th residue]	
	CC(=O)N[C@H]1[C@H](Oc2ccc([N+](=O)[O-])cc2)O[C@H](CO)[C@H](O)[C@@H]1O [pNp-β-GalNAc]	did not react
	CC(=O)N[C@H]1[C@@H](Oc2ccc([N+](=O)[O-])cc2)O[C@H](CO)[C@H](O)[C@@H]1O [pNp-α-GalNAc]	reacted strongly
